According to patent publication US4382937A, “Naphthyridine derivatives and their use as anti-bacterials” (Dainippon Pharmaceutical Co., Ltd., priority 1981, dated 1983):
≈ marks a conversion by molar mass, not a printed value.

Columns and labels:
[1] = tested on: Pseudomonas aeruginosa No. 12; assay: In vivo therapeutic efficacy against pulmonary infection in mice; set-up: species or system mice (ddY-S); conditions: NO.12, 120 h, female mice, po, 0, 1 and 3 hours after infection, survival on 5th day, probit analysis
Description: (§1) Female mice (ddY-S) weighing 18 to 26 g were intranasally intected with 4 drops of a bacterial suspension* in physiological saline. Drugs suspended in 0.2% sodium carboxymethyl cellulose were orally administered 0, 1, and 3 hours after infection. Survival rates were determined on the 5th day after infection. ED50 was calculated by probit analysis.
*Pseudomonas aeruginosa No. 12--2.0×10^7 cells/mouse

Enterobacter cloacae 963 = assay: In vitro antibacterial activity (MIC), twofold agar-dilution method; format: cell-based; conditions: Enterobacter cloacae 963, twofold agar-dilution; read-out: minimum inhibitory concentration (MIC)
Description: (§2) The minimum inhibitory concentrations (MIC: μg/ml) of the following compounds were measured by the twofold agar-dilution method according to the procedure described in Chemotherapy, Vol. 29, No. 1, page 76 (1981).

[2] = tested on: Serratia marcescens IFO 3736; assay: as above; format: cell-based; conditions: IFO3736; Serratia marcescens IFO 3736, twofold agar-dilution; read-out: minimum inhibitory concentration (MIC)
Description: as §2

[3] = tested on: Klebsiella pneumoniae No. 13; assay: as above; format: cell-based; conditions: Klebsiella pneumoniae No. 13, twofold agar-dilution; read-out: minimum inhibitory concentration (MIC)
Description: as §2

[4] = tested on: Proteus mirabilis IFO 3849-4; assay: as above; format: cell-based; conditions: IFO3849; Proteus mirabilis IFO 3849-4, twofold agar-dilution; read-out: minimum inhibitory concentration (MIC)
Description: as §2

[5] = tested on: Salmonella typhimurium S-9; assay: as above; format: cell-based; conditions: Salmonella enterica; Salmonella typhimurium S-9, twofold agar-dilution; read-out: minimum inhibitory concentration (MIC)
Description: as §2

Proteus morganii Kono = assay: as above; format: cell-based; conditions: Morganella morganii, read-out: minimum inhibitory concentration (MIC)
Description: as §2

[6] = tested on: Escherichia coli NIHJ JC-2; assay: as above; format: cell-based; conditions: NIHJJC2; Escherichia coli NIHJ JC-2, twofold agar-dilution; read-out: minimum inhibitory concentration (MIC)
Description: as §2

Escherichia coli P-5101 [7] = assay: as above; format: cell-based; conditions: P5101; Escherichia coli P-5101, twofold agar-dilution; read-out: minimum inhibitory concentration (MIC)
Description: as §2

[8] = tested on: Pseudomonas aeruginosa No. 12; assay: as above; format: cell-based; conditions: Pseudomonas aeruginosa No. 12, twofold agar-dilution; read-out: minimum inhibitory concentration (MIC)
Description: as §2

[9] = tested on: Pseudomonas aeruginosa Tsuchiijima; assay: as above; format: cell-based; conditions: read-out: minimum inhibitory concentration (MIC)
Description: as §2

Shigella flexneri 2a = assay: as above; format: cell-based; conditions: read-out: minimum inhibitory concentration (MIC)
Description: as §2

[10] = tested on: Salmonella enteritidis No. 1891; assay: as above; format: cell-based; conditions: Salmonella enterica; Salmonella enteritidis No. 1891, twofold agar-dilution; read-out: minimum inhibitory concentration (MIC)
Description: as §2

Escherichia coli P-5101 [11] = assay: In vivo therapeutic efficacy against systemic infections in mice; set-up: species or system mice (ddY); conditions: P5101, 168 h; systemic infection, Escherichia coli P-5101, male mice, po, twice (about 5 minutes and 6 hours after infection), 7 days, Behrens-Kaerber; read-out: median effective dose (ED50)
Description: (§3) Compounds 1 and A were each suspended in a 0.2% aqueous solution of sodium carboxymethyl cellulose. Each of the solutions was orally administered to mice infected with each of the test organisms under the conditions described below, and the median effective doses (ED50) obtained are shown in Table II. Male mice (ddY) weighing about 20 g (1) Escherichia coli P-5101: Intraperitoneal infection with about 9×10^6 cells per mouse suspended in trypto-soy broth with 4% mucin. Twice, about 5 minutes and 6 hours after infection. for 7 days. | The numerals in the table show ED50 (mg/kg). ED50 values were | calculated in accordance with the BehrensKaerber method (Arch. Exp. Path. | Pharm., 162, 480 (1931)). | po: oral administration.

[12] = tested on: Pseudomonas aeruginosa No. 12; assay: In vivo therapeutic efficacy against ascending kidney infection; set-up: species or system mice (Std:ddY-S); conditions: NO.12, 120 h, female mice, po, twice a day for 3 days, kidneys on 5th day, probit analysis
Description: Compounds 1 and A were tested by the following procedure for therapeutic efficacy against the ascending kidney infection with Pseudomonas aeruginosa No. 12 in mice. Female mice (Std:ddY-S) weighing 22 to 30 g were anesthetized by intravenous injection of sodium pentobarbital at a dose of 50 mg/kg. Through a small suprapubic incision, the urinary bladder was exposed and then infected by injecting 0.1 ml of a 1:10,000 dilution of Pseudomonas aeruginosa No. 12 cultured for 20 hours in trypto-soy broth, using a 0.25 ml syringe with a 0.25 mm needle. The mice were restrained from drinking water for a period from 1 day before to 1 day after the infection. The compound 1 or A was administered orally twice a day for 3 days starting on the day of infection. On the 5th day after infection, the kidneys were harvested for the detection of the bacteria, transversely bisected and stamped on King A agar, which were incubated at 37° C. overnight. No bacterial finding in the kidneys was regarded as protected from the ascending kidney infection. ED50 values were calculated by probit analysis.

[13] = tested on: Pseudomonas aeruginosa No. 12; assay: In vivo therapeutic efficacy against dermal infections; set-up: species or system mice (ddY-S); conditions: NO.12, 96 h, dermal infection, female mice, po, 6 times (0, 3, 6, 24, 27, 30 hours), abscess on 4th day, probit analysis
Description: Female mice (ddY-S) weighing 21 to 26 g were subcutaneously infected at the dorsal skin with approximate 9×10^6 viable cells of Pseudomonas aeruginosa No. 12 in 0.2 ml physiological saline. Medication was performed 6 times; 0, 3, 6, 24, 27, and 30 hours after infection. The appearance of skin abscess at the inoculated site was examined on the 4th day after infection and mice bearing no abscess were regarded as protected from the infection. ED50 was calculated by probit analysis.

[14] = tested on: Pseudomonas aeruginosa No. 12; assay: In vivo therapeutic efficacy against systemic infections in mice; set-up: species or system mice (ddY); conditions: 168 h; systemic infection, Pseudomonas aeruginosa No. 12, male mice, po, twice (about 5 minutes and 6 hours after infection), 7 days, Behrens-Kaerber; read-out: median effective dose (ED50)
Description: as §3, with “(2) Pseudomonas aeruginosa No. 12:” for “(1) Escherichia coli P-5101:”, “4×10^3” for “9×10^6”

Gram-negative bacteria = assay: In vivo antibacterial efficacy (Tables II to V), overall comparison; set-up: species or system mice; conditions: compound 1 compared with compound A
Source text: Compounds 1 and A were each suspended in a 0.2% aqueous solution of sodium carboxymethyl cellulose. Each of the solutions was orally administered to mice infected with each of the test organisms under the conditions described below, and the median effective doses (ED50) obtained are shown in Table II.
as §1
Female mice (Std:ddY-S) weighing 22 to 30 g were anesthetized by intravenous injection of sodium pentobarbital at a dose of 50 mg/kg. Through a small suprapubic incision, the urinary bladder was exposed and then infected by injecting 0.1 ml of a 1:10,000 dilution of Pseudomonas aeruginosa No. 12 cultured for 20 hours in trypto-soy broth, using a 0.25 ml syringe with a 0.25 mm needle. […] ED50 values were calculated by probit analysis.
Female mice (ddY-S) weighing 21 to 26 g were subcutaneously infected at the dorsal skin with approximate 9×10^6 viable cells of Pseudomonas aeruginosa No. 12 in 0.2 ml physiological saline. […] ED50 was calculated by probit analysis.

[15] = Acute oral toxicity in mice; conditions: mouse, in vivo, male mice, deaths after 7 days, Behrens-Kaerber, read-out: median lethal dose (LD50)
Description: A solution containing compound 1 in various concentrations was orally given to male mice (ddY-S) at a volume of 0.1 ml per 10 g of body weight. The number of dead mice was counted after 7 days, and the value of median lethal dose (LD50; mg/kg) was calculated in accordance with the Behrens-Kaerber method.

| SMILES | ED50 [1] | MIC (Enterobacter cloacae 963) | MIC [2] | MIC [3] | MIC [4] | MIC [5] | MIC (Proteus morganii Kono) | MIC [6] | MIC (Escherichia coli P-5101 [7]) | MIC [8] | MIC [9] | MIC (Shigella flexneri 2a) | MIC [10] | ED50 (Escherichia coli P-5101 [11]) | ED50 [12] | ED50 [13] | ED50 [14] | in vivo antibacterial efficacy against Gram-negative bacteria (Gram-negative bacteria) | LD50 at 168 h [15] |
| --- | --- | --- | --- | --- | --- | --- | --- | --- | --- | --- | --- | --- | --- | --- | --- | --- | --- | --- | --- |
| CCn1cc(C(=O)O)c(=O)c2cc(F)c(N3CCC(N)C3)nc21 (stereo not drawn) [A, 7-(3-Amino-1-pyrrolidinyl)-1-ethyl-6-fluoro-1,4-dihydro-4-oxo-1,8-naphthyridine-3-carboxylic acid, reference compound] | 19.7 mg/kg | 0.2 µg/mL (≈ 0.624 µM) | 0.2 µg/mL (≈ 0.624 µM) | 0.2 µg/mL (≈ 0.624 µM) | 0.39 µg/mL (≈ 1.22 µM) | 0.1 µg/mL (≈ 0.312 µM) | 0.2 µg/mL (≈ 0.624 µM) | 0.1 µg/mL (≈ 0.312 µM) | 0.05 µg/mL (≈ 0.156 µM) | 0.39 µg/mL (≈ 1.22 µM) | 0.39 µg/mL (≈ 1.22 µM) | 0.1 µg/mL (≈ 0.312 µM) | 0.05 µg/mL (≈ 0.156 µM) | 1.6 mg/kg | 3 mg/kg | 11.7 mg/kg | 6.7 mg/kg |  |  |
| C=Cn1cc(C(=O)O)c(=O)c2cc(F)c(N3CCC(N)C3)nc21 (stereo not drawn) [Compound 1, 7-(3-Amino-1-pyrrolidinyl)-6-fluoro-1,4-dihydro-4-oxo-1-vinyl-1,8-naphthyridine-3-carboxylic acid] | 6.3 mg/kg | 0.05 µg/mL (≈ 0.157 µM) | 0.2 µg/mL (≈ 0.628 µM) | 0.1 µg/mL (≈ 0.314 µM) | 0.2 µg/mL (≈ 0.628 µM) | 0.05 µg/mL (≈ 0.157 µM) | 0.05 µg/mL (≈ 0.157 µM) | 0.025 µg/mL (≈ 0.0785 µM) | 0.025 µg/mL (≈ 0.0785 µM) | 0.2 µg/mL (≈ 0.628 µM) | 0.2 µg/mL (≈ 0.628 µM) | 0.025 µg/mL (≈ 0.0785 µM) | 0.025 µg/mL (≈ 0.0785 µM) | 0.8 mg/kg | 0.5 mg/kg | 2.4 mg/kg | 1.8 mg/kg | much better in vivo antibacterial efficacy against Gram-negative bacteria than the compound A | > 4000 mg/kg |
